10 compounds from US9850283B2, “Macrocyclic inhibitors of the PD-1/PD-L1 and CD80(B7-1)/PD-L1 protein/protein interactions” (BRISTOL-MYERS SQUIBB COMPANY, priority 2013, dated 2017) can be followed below.

Experiment [1] addresses T1, Human PD-L1/PD-1 (Homo sapiens, UniProt Q9NZQ7).
T1 construct: made in house; host or cells: HEK293T
The experiment in a line: HTRF PD-1-Ig/PD-L1-His binding assay (human PD-L1). The settings on record: cluster symbol; read-out: HTRF IC50 cluster. The procedure, abridged:
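Interaction of Fc-tagged soluble PD-1 with His-tagged soluble PD-L1 is monitored by time-resolved FRET. Donor is europium cryptate anti-Ig (1 nM final) and acceptor is APC anti-His (20 nM final). Assay buffer is dPBS with 0.1% BSA and 0.05% Tween-20.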
In general terms: Time-resolved FRET reads energy transfer from a long-lived donor to a nearby acceptor.

In experiment [2] the target is T2, LK35.2-hPD-L1 cells / PE-labeled PD-1-Ig (Homo sapiens, UniProt Q9NZQ7).
T2 construct: expressed in transfected cells; host or cells: LK35.2 mouse B cell line
The experiment in a line: LK35.2-hPD-L1 cell binding high-content screening assay. It is filed as cell-based. The conditions noted are these: cluster symbol, read-out: CBA IC50 cluster. The procedure, abridged:
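Compound effect on PD-1/PD-L1 binding is measured by imaging cell-associated phycoerythrin signal. Human PD-1-Ig (PE on Ig tag, 1 nM final) is applied with compound to a murine B cell line overexpressing human PD-L1 for 1 h at 37 °C in serum-containing RPMI.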

[3] abbreviates: cell line of CBA not given (LK35.2-hPD-L1 or 293T-hPD-L1).
Setting [4] is: cell binding assay, cell line not given.

pIC50: −log10 of the molar value. Read-outs that look alike come from different tables or passages of the source. Positions of bridges follow the written chain, without caps; N, C: chain ends. Non-standard residues stand in square brackets, D forms with d. Residues, ends and D or L forms follow the SMILES beside them. ξ: configuration not given here. Phe(3,4-Cl2) = N[C@@H](Cc1ccc(Cl)c(Cl)c1)C(=O)O; Phe(F5) = N[C@@H](Cc1c(F)c(F)c(F)c(F)c1F)C(=O)O; Bta = N[C@@H](Cc1csc2ccccc12)C(=O)O; Hyp = O=C(O)[C@@H]1C[C@@H](O)CN1; dNMeNle = CCCC[C@@H](NC)C(=O)O; NMeNle = CCCC[C@H](NC)C(=O)O; NMeM = CN[C@@H](CCSC)C(=O)O; NMeS = CN[C@@H](CO)C(=O)O; NMeA = CN[C@@H](C)C(=O)O; dDap = NC[C@@H](N)C(=O)O; Dab = NCC[C@H](N)C(=O)O; Dap = NC[C@H](N)C(=O)O; ξhCys = NC(CCS)C(=O)O; ξP = O=C(O)C1CCCN1; ξC = NC(CS)C(=O)O; Sar = CNCC(=O)O

Usually pIC50 stands for −log10 of the IC50, conventionally taken in molar units.

T1 sequence (Q9NZQ7 with tags, fused parts or gaps): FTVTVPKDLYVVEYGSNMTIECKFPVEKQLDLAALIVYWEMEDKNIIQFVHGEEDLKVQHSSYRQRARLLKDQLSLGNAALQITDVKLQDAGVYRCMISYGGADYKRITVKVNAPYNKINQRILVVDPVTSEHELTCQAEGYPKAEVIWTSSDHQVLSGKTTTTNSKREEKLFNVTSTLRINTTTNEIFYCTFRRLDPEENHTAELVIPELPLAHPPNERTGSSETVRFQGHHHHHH
T2 sequence (Q9NZQ7 19-290): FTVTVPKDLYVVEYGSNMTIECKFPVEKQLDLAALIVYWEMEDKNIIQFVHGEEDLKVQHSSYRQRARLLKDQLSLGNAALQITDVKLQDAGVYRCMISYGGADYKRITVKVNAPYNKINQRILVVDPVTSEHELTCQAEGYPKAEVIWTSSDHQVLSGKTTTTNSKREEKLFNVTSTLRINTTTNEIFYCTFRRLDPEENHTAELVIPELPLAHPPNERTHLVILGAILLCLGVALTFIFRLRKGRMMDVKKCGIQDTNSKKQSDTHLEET

As to `CCCC[C@H]1C(=O)N[C@@H](CCCNC(=N)N)C(=O)N[C@H](C(=O)NCC(N)=O)CSCC(=O)N[C@@H](Cc2ccccc2)C(=O)N(C)[C@@H](C)C(=O)N[C@@H](CC(N)=O)C(=O)N2CCC[C@H]2C(=O)N[C@@H](Cc2cnc[nH]2)C(=O)N[C@@H](CC(C)C)C(=O)N(C)CC(=O)N[C@@H](Cc2c[nH]c3ccccc23)C(=O)N[C@@H](CO)C(=O)N[C@@H](Cc2c[nH]c3ccccc23)C(=O)N[C@@H](Cc2c(F)c(F)c(F)c(F)c2F)C(=O)N1C` [Example 1058] ({CH2CO}-F[NMeA]NPHL[Sar]WSW[Phe(F5)][NMeNle]RCG-NH2; thioether N-14), the pIC50 was below 7.52 in experiment [1] and below 7.13 in experiment [2] (setting [3]).
For `CCCC[C@@H]1C(=O)N(C)[C@H](CCCC)C(=O)N[C@@H](C)C(=O)N[C@@H](C(=O)NCC(N)=O)CSCC(=O)N[C@@H](Cc2ccc(O)cc2)C(=O)N2CCCC2C(=O)N[C@H](CC(=O)O)C(=O)N2CCC[C@H]2C(=O)N[C@H](CN)C(=O)N[C@@H](CCC(N)=O)C(=O)N2CCCC2C(=O)N[C@H](Cc2c[nH]c3ccccc23)C(=O)N[C@@H](CCN)C(=O)N[C@@H](Cc2c[nH]c3ccccc23)C(=O)N1C` (some centres unmarked) [Example 1208] ({CH2CO}-Y[ξP][dD]P[dDap]Q[ξP][dW][Dab]W[dNMeNle][dNMeNle]A[dC]G-NH2; thioether N-14), in that order: 8.17 to 9.41 and 7.14 to 8.32.
Turning to `CCCC[C@H]1C(=O)N(C)[C@@H](CCCC)C(=O)N[C@@H](CCCNC(=N)N)C(=O)NC(C(=O)NCC(N)=O)CCSCC(=O)N[C@@H](Cc2ccc(O)cc2)C(=O)N(C)[C@@H](C)C(=O)N[C@@H](CC(N)=O)C(=O)N2CCC[C@H]2C(=O)N[C@@H](Cc2cnc[nH]2)C(=O)N[C@@H](CC(C)C)C(=O)N2CCC[C@H]2C(=O)N[C@@H](Cc2c[nH]c3ccccc23)C(=O)N[C@@H](CO)C(=O)N[C@@H](Cc2csc3ccccc23)C(=O)N1C` (some centres unmarked) [Example 9018] ({CH2CO}-Y[NMeA]NPHLPWS[Bta][NMeNle][NMeNle]R[ξhCys]G-NH2; thioether N-14), the negative-log IC50 (pIC50) in experiment [1] is 7.52 to 8.17; in experiment [2] (setting [4]), below 7.13.
For `CCCC[C@H]1C(=O)N(C)[C@@H](CCCC)C(=O)N[C@@H](CCCNC(=N)N)C(=O)N[C@H](C(=O)NCC(N)=O)CSCC(=O)N[C@@H](Cc2ccccc2)C(=O)N(C)[C@@H](C)C(=O)N[C@@H](CC(N)=O)C(=O)N2CCC[C@H]2C(=O)N[C@@H](Cc2cnc[nH]2)C(=O)N[C@@H](Cc2ccc(O)cc2)C(=O)N(C)CC(=O)N[C@@H](Cc2c[nH]c3ccccc23)C(=O)N[C@@H](CO)C(=O)N[C@@H](Cc2c[nH]c3ccccc23)C(=O)N1C` [Example 6014] ({CH2CO}-F[NMeA]NPHY[Sar]WSW[NMeNle][NMeNle]RCG-NH2; thioether N-14), in that order: 7.52 to 8.17 and 7.14 to 8.32.
For `CCCC[C@H]1C(=O)N(C)[C@@H](CCCC)C(=O)N[C@@H](CCC(=O)O)C(=O)N[C@H](C(=O)NCC(N)=O)CSCC(=O)N[C@@H](Cc2ccc(O)cc2)C(=O)N(C)[C@@H](C)C(=O)N[C@@H](CC(=O)O)C(=O)N2CCC[C@H]2C(=O)N[C@@H](Cc2c[nH]cn2)C(=O)N[C@@H](CCC(N)=O)C(=O)N2C[C@H](O)C[C@H]2C(=O)N[C@@H](Cc2c[nH]c3ccccc23)C(=O)N[C@@H](CO)C(=O)N[C@@H](Cc2c[nH]c3ccccc23)C(=O)N1C` [Example 5088] ({CH2CO}-Y[NMeA]DPHQ[Hyp]WSW[NMeNle][NMeNle]ECG-NH2; thioether N-14) the same measures were 8.17 to 9.41 and 7.14 to 8.32.
As to `CCCC[C@H]1C(=O)N(C)[C@@H](CCCC)C(=O)N[C@@H](CO)C(=O)NC(C(=O)NCC(N)=O)CSCC(=O)N[C@@H](Cc2ccc(O)cc2)C(=O)N(C)[C@@H](C)C(=O)N[C@@H](CC(N)=O)C(=O)N2CCC[C@H]2C(=O)N[C@@H](Cc2cnc[nH]2)C(=O)N[C@@H](CC(C)C)C(=O)N2C[C@H](O)C[C@H]2C(=O)N[C@@H](Cc2c[nH]c3ccccc23)C(=O)N[C@@H](CO)C(=O)N[C@@H](Cc2csc3ccccc23)C(=O)N1C` (some centres unmarked) [Example 9028] ({CH2CO}-Y[NMeA]NPHL[Hyp]WS[Bta][NMeNle][NMeNle]S[ξC]G-NH2; thioether N-14), the pIC50 in experiment [1] is 8.17 to 9.41; in experiment [2] (setting [4]) it was 8.33 to 9.80.
For the compound `CCCC[C@H]1C(=O)N(C)[C@@H](CCSC)C(=O)N[C@@H](CCCNC(=N)N)C(=O)NC(C(=O)NCC(N)=O)CSCC(=O)N[C@@H](Cc2ccc(O)cc2)C(=O)N(C)[C@@H](C)C(=O)N[C@@H](CC(N)=O)C(=O)N2CCC[C@H]2C(=O)N[C@@H](CN)C(=O)N[C@@H](CC(C)C)C(=O)N2C[C@H](O)C[C@H]2C(=O)N[C@@H](Cc2c[nH]c3ccccc23)C(=O)N[C@@H](CO)C(=O)N[C@@H](Cc2c[nH]c3ccccc23)C(=O)N1C` (some centres unmarked) [Example 9083] ({CH2CO}-Y[NMeA]NP[Dap]L[Hyp]WSW[NMeNle][NMeM]R[ξC]G-NH2; thioether N-14), the negative-log IC50 (pIC50) in experiment [1] was 7.52 to 8.17; in experiment [2] (setting [4]), 8.33 to 9.80.
For `CCCC[C@H]1C(=O)N(C)[C@@H](CCCC)C(=O)N[C@@H](CCCNC(=N)N)C(=O)NC(C(=O)NCC(N)=O)CSCC(=O)N[C@@H](Cc2ccc(O)cc2)C(=O)N(C)[C@@H](CO)C(=O)N[C@@H](CC(N)=O)C(=O)N2CCC[C@H]2C(=O)N[C@@H](Cc2cnc[nH]2)C(=O)N[C@@H](CC(C)C)C(=O)N2CCC[C@H]2C(=O)N[C@@H](Cc2c[nH]c3ccccc23)C(=O)N[C@@H](CO)C(=O)N[C@@H](Cc2csc3ccccc23)C(=O)N1C` (some centres unmarked) [Example 9035] ({CH2CO}-Y[NMeS]NPHLPWS[Bta][NMeNle][NMeNle]R[ξC]G-NH2; thioether N-14), the negative-log IC50 (pIC50) was 7.52 to 8.17 in experiment [1] and 7.14 to 8.32 in experiment [2] (setting [4]).
Turning to `CCCC[C@H]1C(=O)N(C)[C@@H](CCCC)C(=O)N[C@@H](CCCNC(=N)N)C(=O)N[C@H](C(=O)NCC(N)=O)CSCC(=O)N[C@@H](Cc2ccc(Cl)c(Cl)c2)C(=O)N(C)[C@@H](C)C(=O)N[C@@H](CC(N)=O)C(=O)N2CCC[C@H]2C(=O)N[C@@H](Cc2cnc[nH]2)C(=O)N[C@@H](CC(C)C)C(=O)N(C)CC(=O)N[C@@H](Cc2c[nH]c3ccccc23)C(=O)N[C@@H](CO)C(=O)N[C@@H](Cc2c[nH]c3ccccc23)C(=O)N1C` [Example 1103] ({CH2CO}-[Phe(3,4-Cl2)][NMeA]NPHL[Sar]WSW[NMeNle][NMeNle]RCG-NH2; thioether N-14), the negative-log IC50 (pIC50) in experiment [1] was 7.52 to 8.17; in experiment [2] (setting [3]), 7.14 to 8.32.
As for `CCCC[C@H]1C(=O)N(C)[C@@H](CCCC)C(=O)N[C@@H](CCCNC(=N)N)C(=O)NC(C(=O)N[C@@H](CO)C(N)=O)CSCC(=O)N[C@@H](Cc2ccc(O)cc2)C(=O)N(C)[C@@H](C)C(=O)N[C@@H](CC(N)=O)C(=O)N2CCC[C@H]2C(=O)N[C@@H](Cc2cnc[nH]2)C(=O)N[C@@H](CO)C(=O)N2C[C@H](O)C[C@H]2C(=O)N[C@@H](Cc2c[nH]c3ccccc23)C(=O)N[C@@H](CO)C(=O)N[C@@H](Cc2csc3ccccc23)C(=O)N1C` (some centres unmarked) [Example 9078] ({CH2CO}-Y[NMeA]NPHS[Hyp]WS[Bta][NMeNle][NMeNle]R[ξC]S-NH2; thioether N-14), the pIC50 in experiment [1] was 7.52 to 8.17; in experiment [2] (setting [4]) it was 8.33 to 9.80.
